Measured values: patent US20060069132A1, “Azolecarboxamide herbicides” (priority 2004, published 2006)

How the values were obtained:
rice = experiment: Test B flooded paddy test; format: in vivo, Oryza sativa; details: 1000 g ai/ha, scale 0 to 100 (0 no effect, 100 complete control)
Summary of the method: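 Each value is a visual 0–100 response rating taken against controls 13 to 15 days after treatment in the greenhouse. Plants received formulated chemical postemergence at the 1- to 4-leaf stage or, in flooded paddy, at the 2-leaf stage.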

ducksalad = experiment: Test B flooded paddy test; format: in vivo, Heteranthera limosa; details: 1000 g ai/ha, scale 0 to 100 (0 no effect, 100 complete control)
Summary of the method: (§1)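 Treated at 2-leaf (paddy) or 1–4-leaf, 2–18 cm (postemergence); greenhouse 13–15 d; visual score vs control, 0 none to 100 complete control; dash = not tested.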

pigweed = experiment: Test B pre-/postemergence herbicide test; format: in vivo, Amaranthus retroflexus
Summary of the method: (§2)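 Evaluation is visual, comparing treated with control plants on a scale where 0 means no effect and 100 means full control. Treatments were preemergence, or postemergence on seedlings 2–18 cm tall, and held 13–15 days in the greenhouse.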

large crabgrass = experiment: Test B pre-/postemergence herbicide test; format: in vivo, Digitaria sanguinalis
Summary of the method: as §2

cocklebur = experiment: Test B pre-/postemergence herbicide test; format: in vivo, Xanthium strumarium
Summary of the method: (§3)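 Herbicidal effect was judged by eye on a 0–100 scale after plants stood 13 to 15 days in the greenhouse following pre- or postemergence treatment with surfactant-containing formulations.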

wheat = experiment: Test B postemergence herbicide test; format: in vivo, Triticum aestivum; set-up: key to Wheat plant response rating: 0 = no effect, 100 = complete control
Summary of the method: (§4)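 Formulated test chemicals went onto postemergence plants measuring 2 to 18 cm, at one to four leaves. For the paddy assay, species had reached two leaves. Scoring took place 13–15 days later by eye, relative to untreated plants, using 0 for no effect up to 100 for full control.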

lambsquarters = experiment: Test B pre-/postemergence herbicide test; format: in vivo, Chenopodium album
Summary of the method: as §2

corn = experiment: Test B pre-/postemergence herbicide test; format: in vivo, Zea mays
Summary of the method: as §2

morningglory = experiment: Test B pre-/postemergence herbicide test; format: in vivo, Ipomoea coccinea
Summary of the method: as §3

[1] = test system: small flower umbrella sedge; experiment: Test B flooded paddy test; format: in vivo, Cyperus difformis; details: 1000 g ai/ha, scale 0 to 100 (0 no effect, 100 complete control)
Summary of the method: as §1

blackgrass = experiment: Test B postemergence herbicide test; format: in vivo, Alopecurus myosuroides
Summary of the method: as §1

velvetleaf = experiment: Test B pre-/postemergence herbicide test; format: in vivo, Abutilon theophrasti
Summary of the method: as §2

Surinam grass = experiment: Test B pre-/postemergence herbicide test; format: in vivo, Urochloa decumbens
Summary of the method: as §2

barnyardgrass [2] = experiment: Test B pre-/postemergence herbicide test; format: in vivo, Echinochloa crus-galli
Summary of the method: as §3

barnyardgrass [3] = experiment: Test B flooded paddy test; format: in vivo, Echinochloa crus-galli; details: 1000 g ai/ha, scale 0 to 100 (0 no effect, 100 complete control)
Summary of the method: as §1

wild oat = experiment: Test B postemergence herbicide test; format: in vivo, Avena fatua
Summary of the method: as §4

[4] = 125 g ai/ha, 0 is no effect, 100 is complete control, preemergence
[5] = 125 g ai/ha, visual rating, scale 0 (no effect) to 100 (complete control), postemergence
[6] = 500 g ai/ha, visual rating, 0 = no effect, 100 = complete control, preemergence
[7] = postemergence, 500 g ai/ha, scale 0 to 100, 0 is no effect, 100 is complete control
[8] = 125 g ai/ha; visual rating, scale 0 (no effect) to 100 (complete control); postemergence
[9] = postemergence, 500 g ai/ha; scale 0 to 100, 0 is no effect, 100 is complete control
[10] = Postemergence, 500 g ai/ha, visual rating after 13 to 15 days, scale 0 (no effect) to 100 (complete control)
[11] = Preemergence, 500 g ai/ha, scale 0 to 100
[12] = postemergence, 125 g ai/ha, visual rating, scale 0 (no effect) to 100 (complete control)
[13] = preemergence, 125 g ai/ha, 0 to 100 scale, 0 is no effect, 100 is complete control
[14] = Postemergence, 500 g ai/ha; visual rating after 13 to 15 days, scale 0 (no effect) to 100 (complete control)
[15] = postemergence, 125 g ai/ha; visual rating, scale 0 (no effect) to 100 (complete control)

Compound: CCn1nc(C(C)(C)C)cc1C(=O)Nc1cc(C(=S)N(C)C)ccn1 [Compound 334]
- Rice plant response rating (rice): 80
- Ducksalad plant response rating (ducksalad): 90
- Plant response rating (0 to 100 scale), Pigweed (pigweed; [4]): 60
- Pigweed plant response rating (pigweed; [5]): 40
- Plant response rating, Pigweed (pigweed; [6]): 100
- Pigweed plant response rating (pigweed; [7]): 70
- Plant response rating (0 to 100 scale), Crabgrass, Large (large crabgrass; [4]): 90
- Crabgrass, Large plant response rating (large crabgrass; [5]): 10
- Plant response rating, Crabgrass, Large (large crabgrass; [6]): 100
- Crabgrass, Large plant response rating (large crabgrass; [7]): 50
- Plant response rating (0 to 100 scale), Cocklebur (cocklebur; [4]): 60
- Cocklebur plant response rating (cocklebur; [5]): 20
- Plant response rating, Cocklebur (cocklebur; [6]): 100
- Cocklebur plant response rating (cocklebur; [7]): 70
- Wheat plant response rating (wheat; [8]): 10
- Wheat plant response rating (wheat; [9]): 20
- Plant response rating (0 to 100 scale), Lambsquarters (lambsquarters; [4]): 100
- Lambsquarters plant response rating (lambsquarters; [5]): 70
- Plant response rating, Lambsquarters (lambsquarters; [6]): 100
- Lambsquarters plant response rating (lambsquarters; [7]): 90
- Plant response rating (0 to 100 scale), Corn (corn; [4]): 20
- Corn plant response rating (corn; [5]): 0
- Plant response rating, Corn (corn; [6]): 70
- Corn plant response rating (corn; [7]): 20
- Plant response rating (0 to 100 scale), Morningglory (morningglory; [4]): 0
- Morningglory plant response rating (morningglory; [5]): 50
- Plant response rating, Morningglory (morningglory; [6]): 70
- Morningglory plant response rating (morningglory; [7]): 80
- Sedge, Umbrella plant response rating [1]: 80
- Blackgrass plant response rating (blackgrass; [8]): 30
- Blackgrass plant response rating (blackgrass; [9]): 70
- Plant response rating (0 to 100 scale), Velvetleaf (velvetleaf; [4]): 100
- Velvetleaf plant response rating (velvetleaf; [5]): 50
- Velvetleaf plant response rating (velvetleaf; [7]): 60
- Plant response rating (0 to 100 scale), Surinam Grass (Surinam grass; [4]): 80
- Surinam Grass plant response rating (Surinam grass; [5]): 20
- Plant response rating, Surinam Grass (Surinam grass; [6]): 100
- Surinam Grass plant response rating (Surinam grass; [7]): 50
- Plant response rating (0 to 100 scale), Barnyardgrass (barnyardgrass [2]; [4]): 90
- Barnyardgrass plant response rating (barnyardgrass [2]; [5]): 0
- Plant response rating, Barnyardgrass (barnyardgrass [2]; [6]): 100
- Barnyardgrass plant response rating (barnyardgrass [2]; [7]): 60
- Barnyardgrass plant response rating (barnyardgrass [3]): 90
- Oat, Wild plant response rating (wild oat; [8]): 20
- Oat, Wild plant response rating (wild oat; [9]): 30

Compound: CCNC(=O)c1cc(NC(=O)c2cc(C(C)(C)C)nn2CC)ccc1F [Compound 58]
- Rice plant response rating (rice; visual rating, 13 to 15 days): 60
- Ducksalad plant response rating (ducksalad; visual rating, 13 to 15 days): 80
- Plant response rating, Pigweed (pigweed; [10]): 90
- Pigweed plant response rating (pigweed; [11]): 100
- Pigweed plant response rating (pigweed; [12]): 60
- Plant response rating, Pigweed (pigweed; [13]): 100
- Plant response rating, Crabgrass, Large (large crabgrass; [10]): 30
- Crabgrass, Large plant response rating (large crabgrass; [11]): 100
- Crabgrass, Large plant response rating (large crabgrass; [12]): 20
- Plant response rating, Crabgrass, Large (large crabgrass; [13]): 100
- Plant response rating, Cocklebur (cocklebur; [10]): 100
- Cocklebur plant response rating (cocklebur; [11]): 100
- Cocklebur plant response rating (cocklebur; [12]): 80
- Plant response rating, Cocklebur (cocklebur; [13]): 0
- Plant response rating, Wheat (wheat; [14]): 20
- Wheat plant response rating (wheat; [15]): 0
- Plant response rating, Lambsquarters (lambsquarters; [10]): 90
- Lambsquarters plant response rating (lambsquarters; [11]): 100
- Lambsquarters plant response rating (lambsquarters; [12]): 90
- Plant response rating, Lambsquarters (lambsquarters; [13]): 100
- Plant response rating, Corn (corn; [10]): 20
- Corn plant response rating (corn; [11]): 30
- Corn plant response rating (corn; [12]): 10
- Plant response rating, Corn (corn; [13]): 20
- Plant response rating, Morningglory (morningglory; [10]): 30
- Morningglory plant response rating (morningglory; [11]): 30
- Morningglory plant response rating (morningglory; [12]): 20
- Sedge, Umbrella plant response rating ([1]; visual rating, 13 to 15 days): 80
- Plant response rating, Blackgrass (blackgrass; [14]): 30
- Blackgrass plant response rating (blackgrass; [15]): 10
- Plant response rating, Velvetleaf (velvetleaf; [10]): 70
- Velvetleaf plant response rating (velvetleaf; [11]): 100
- Velvetleaf plant response rating (velvetleaf; [12]): 50
- Plant response rating, Velvetleaf (velvetleaf; [13]): 60
- Plant response rating, Surinam Grass (Surinam grass; [10]): 30
- Surinam Grass plant response rating (Surinam grass; [11]): 60
- Surinam Grass plant response rating (Surinam grass; [12]): 10
- Plant response rating, Surinam Grass (Surinam grass; [13]): 30
- Plant response rating, Barnyardgrass (barnyardgrass [2]; [10]): 60
- Barnyardgrass plant response rating (barnyardgrass [2]; [11]): 100
- Barnyardgrass plant response rating (barnyardgrass [2]; [12]): 30
- Plant response rating, Barnyardgrass (barnyardgrass [2]; [13]): 90
- Barnyardgrass plant response rating (barnyardgrass [3]; visual rating, 13 to 15 days): 80
- Plant response rating, Oat, Wild (wild oat; [14]): 30
- Oat, Wild plant response rating (wild oat; [15]): 20
